Results from publication PMC10823468, “Design, Synthesis, and Evaluation of New 1H-Benzo[d]imidazole Based PqsR Inhibitors as Adjuvant Therapy for Pseudomonas aeruginosa Infections” (Journal of Medicinal Chemistry, 2024).
Read-outs that look alike come from different tables or passages of the source.

How the values were obtained:
[1] = system: PqsR (PqsR-controlled pqsA promoter, PAO1-L mCTX::PpqsA-lux); experiment: Bioluminescent reporter assay, PAO1-L mCTX::PpqsA-lux; type: cell-based, Pseudomonas aeruginosa; conditions: for activity relative to 6f / to each other, in words: PAO1-L reporter (6i, 6j, 6s: both reporter strains); for IC50: Pseudomonas aeruginosa; for pqs inhibitory activity in the PA bioluminescent reporter assay, in words: reporter strains; for reduction in potency compared with 6f: PAO1-L
Description: (§1) An extensive SAR was performed on 6a to investigate the role of substitutions around various positions of the benzimidazole ring (groups R1–R3) as well as the aromatic tail (groups R4–R5) to fine-tune the potency of this series (6a–u) (Table 2). The activity of these analogues to inhibit the pqs QS system was evaluated in the PAO1-L and PA14 strains (that belong to the two major P. aeruginosa genomic lineages), both harboring a chromosomally integrated mCTX::PpqsA-lux transcriptional fusion to report for the activity of pqs system. Successful pharmacological blocking of AQ signal reception at the level of PqsR leads to a reduced transcription of the pqsA-lux genes and ultimately reduction in the luminescence readout.
(§2) Strains PA14 mCTX::PpqsA-lux and PAO1-L mCTX::PpqsA-lux were used to detect PqsR-controlled activation of the pqsA promoter, as previously described,[45] and the assay was performed according to a published method.[46] For initial screening, the compounds were tested at a concentration of 10 μM, which was prepared from a 10 mM stock, in DMSO.

[2] = system: PqsR (PqsR-controlled pqsA promoter, PA14 mCTX::PpqsA-lux); experiment: Bioluminescent reporter assay, PA14 mCTX::PpqsA-lux; type: cell-based; conditions: Pseudomonas aeruginosa
Description: as §1, §2

[3] = system: PqsR (PqsR-controlled pqsA promoter, PAO1-L mCTX::PpqsA-lux); design: method as in PMID 34503335; conditions: previously reported inhibitor; read-out: IC50 in P. aeruginosa PAO1-L; cited from earlier work
[4] = system: pyocyanin production in P. aeruginosa; experiment: Pyocyanin quantification; type: cell-based, Pseudomonas aeruginosa; conditions: PAO1-L; concentration three times the IC50; relative to DMSO
Description: This assay was extended further to investigate the effect of 6f on pyocyanin production in different P. aeruginosa at 6f concentration of 200 nM (Figure 5b).
The experiment was performed following a published protocol with minor modifications. Strains were cultured into 5 mL of fresh medium overnight. […] Cells were centrifuged at 10 000 RCF for 10 min (Allegra 64R centrifuge, Beckman Coulter, High Wycombe, UK), and the supernatant was transferred to 15 mL falcon tubes with a HSW 10 mL Soft-Ject Syringe and a […] Sartorius syringe-driven filter (Fisher Brand, Loughborough, UK). Pyocyanin pigment was extracted into chloroform by mixing 7.5 mL of supernatant with 4.5 mL of chloroform. Pyocyanin was further extracted into 1.5 mL of 0.2 M HCL, which gave a pink/red solution, and the absorbance was measured at 520 nm.[47]

[5] = system: A549 human lung epithelial carcinoma cell line; experiment: A549 cytotoxicity assay (resazurin / alamar blue); type: cell-based; conditions: at concentrations up to 100 μM (1, 50, 100 μM), 24 h
Description: Establishing the safety profile of new chemical entities is paramount for further drug development. […] The assay employed resazurin reduction, a sensitive fluorometric assay widely used as a standard methodology in drug discovery research.[35] This assay relies on the ability of living cells to reduce resazurin to the fluorescent compound, resorufin, which indicates the rate of the metabolic activity as a means to quantify cell viability.
Cell viability was assessed according to Nimesh et al.[51] on A549 adenocarcinomic human alveolar basal epithelial cell line. The viability of the A549 cell line was assessed after overnight incubation with three concentrations (1, 50, and 100 μM) of the corresponding compound using alamar blue (resazurin) dye. Cells were maintained in the Dulbecco’s Modified Essential Medium (DMEM) supplemented with 10% fetal bovine serum (FBS) and 1% penicillin–streptomycin–neomycin (PSN). After that, 100 μL of suspended cells with a final concentration (1 × 10^4 cells/wall) were seeded in 96-well plates with 100 μL of (1, 50, 100 μM) concentrations of the tested compound was dispensed in sextuplicate. […] The plates were further incubated for 4–6 h and the intensity of the fluorescence was measured using an excitation light of 510 nm and measuring the fluorescence output at 590 nm. The cell viability in each well was normalized to the DMSO reading.

[6] = PAO1, read-out: IC50 (μM) PAO1-L mCTX::PpqsA-lux
[7] = PA14, read-out: IC50 (μM) PA14 mCTX::PpqsA-lux

| Molecule | IC50 [1, 6] [µM] | IC50 [2, 7] [µM] | also measured |
| --- | --- | --- | --- |
| N#CCc1ccc(OCC(O)CNc2nc3ccc(Cl)cc3n2C2CC2)cc1 (stereo not shown) [Compound 6i, 2-(4-(3-((6-Chloro-1-cyclopropyl-1H-benzo[d]imidazol-2-yl)amino)-2-hydroxypropoxy)phenyl) Acetonitrile] | 0.07 ± 0.03 | 0.09 ± 0.02 | activity relative to 6f / to each other, in words [1]: comparable potencies to 6f |
| N#CCc1ccc(OCC(O)CNc2nc3ccc(Cl)cc3s2)cc1 (stereo not shown) [Compound 8] |  |  | pqs inhibitory activity in the PA bioluminescent reporter assay, in words [1]: abolished pqs inhibitory activity |
| N#CCc1ccc(OCC(O)CNc2nc3ccc(Cl)cc3n2CCO)cc1 (stereo not shown) [Compound 6u, 2-(4-(3-((6-Chloro-1-(2-hydroxyethyl)-1H-benzo[d]imidazol-2-yl)amino)-2-hydroxypropoxy)phenyl) Acetonitrile] | 0.18 ± 0.05 | 0.1 ± 0.02 | reduction in potency compared with 6f [1]: 2 fold |
| CC(C)n1c(NC[C@@H](O)COc2ccc(CC#N)cc2)nc2ccc(Cl)cc21 [Compound 6w] |  |  | activity relative to 6f / to each other, in words [1]: comparable activity to the racemic compound 6f |
| CC(C)n1c(NCC(O)COc2ccc(CC#N)cc2)nc2ccccc21 (stereo not shown) [Compound 6p, 2-(4-(2-Hydroxy-3-((1-isopropyl-1H-benzo[d]imidazol-2-yl)amino)propoxy)phenyl) Acetonitrile] | 0.77 | 1.03 |  |
| CN1CCC(n2c(NCC(O)COc3ccc(CC#N)cc3)nc3ccc(Cl)cc32)CC1 (stereo not shown) [Compound 6r, 2-(4-(3-((6-Chloro-1-(1-methylpiperidin-4-yl)-1H-benzo[d]imidazol-2-yl)amino)-2-hydroxypropoxy)phenyl) Acetonitrile] |  |  | pqs inhibitory activity in the PA bioluminescent reporter assay, in words [1]: not active |
| Cn1c(NCC(O)COc2ccc(CC#N)cc2)nc2ccc(Cl)cc21 (stereo not shown) [Compound 6a, 2-(4-(3-((6-Chloro-1-methyl-1H-benzo[d]imidazol-2-yl)amino)-2-hydroxypropoxy)phenyl) Acetonitrile] |  |  | enhancement of activity compared to 1 ([1]; PAO1-L laboratory strain): 15 fold; IC50 ([1]; PAO1, read-out: IC50 (μM) PAO1-L PpqsA-lux): 0.21 ± 0.04 µM; IC50 ([2]; PA14, read-out: IC50 (μM) PA14 PpqsA-lux): 0.2 ± 0.02 µM |
| N#CCc1ccc(OCC(O)Cn2cnc3ccc(Cl)cc3c2=O)cc1 (stereo not shown) [Compound 1] |  |  | IC50 [3]: 3.2 µM |
| CC(C)n1c(NCC(O)COc2ccc(CC#N)c(F)c2)nc2ccc(Cl)cc21 (stereo not shown) [Compound 6o, 2-(4-(3-((6-Chloro-1-isopropyl-1H-benzo[d]imidazol-2-yl)amino)-2-hydroxypropoxy)-2-fluorophenyl) Acetonitrile] | 0.06 ± 0.03 | 0.09 ± 0.01 |  |
| N#CCc1ccc(OCC(O)CNc2nc3ccc(Cl)cc3n2C2CCCCC2)cc1 (stereo not shown) [Compound 6l, 2-(4-(3-((6-Chloro-1-cyclohexyl-1H-benzo[d]imidazol-2-yl)amino)-2-hydroxypropoxy)phenyl) Acetonitrile] | 1.7 ± 0.5 | 1.4 ± 0.1 | reduction in potency compared with 6f [1]: 25 fold |
| N#CCc1ccc(OCC(O)CNc2nc3ccc(Cl)cc3n2CCOCc2ccccc2)cc1 (stereo not shown) [Compound 6m, 2-(4-(3-((1-(2-(Benzyloxy)ethyl)-6-chloro-1H-benzo[d]imidazol-2-yl)amino)-2-hydroxypropoxy)phenyl) Acetonitrile] | 1.06 |  | reduction in potency compared with 6f [1]: 14 fold |
| N#CCc1ccc(OCC(O)CNc2nc3ccc(Cl)cc3n2C2CCC2)cc1 (stereo not shown) [Compound 6j, 2-(4-(3-((6-Chloro-1-cyclobutyl-1H-benzo[d]imidazol-2-yl)amino)-2-hydroxypropoxy)phenyl) Acetonitrile] | 0.16 ± 0.01 | 0.31 ± 0.05 | activity relative to 6f / to each other, in words [1]: comparable potencies to 6f |
| CC(C)(C)n1c(NCC(O)COc2ccc(CC#N)cc2)nc2ccc(Cl)cc21 (stereo not shown) [Compound 6g, 2-(4-(3-((1-(tert-Butyl)-6-chloro-1H-benzo[d]imidazol-2-yl)amino)-2-hydroxypropoxy)phenyl) Acetonitrile] | 0.22 ± 0.01 | 0.23 ± 0.01 | inhibition of pyocyanin production [4]: ~80% |
| CC(C)n1c(NC[C@H](O)COc2ccc(CC#N)cc2)nc2ccc(Cl)cc21 [Compound 6v] |  |  | activity relative to 6f / to each other, in words [1]: comparable activity to the racemic compound 6f |
| CC(C)(C)Cn1c(NCC(O)COc2ccc(CC#N)cc2)nc2ccc(Cl)cc21 (stereo not shown) [Compound 6h, 2-(4-(3-((6-Chloro-1-neopentyl-1H-benzo[d]imidazol-2-yl)amino)-2-hydroxypropoxy)phenyl) Acetonitrile] | 0.38 | 0.25 | reduction in potency compared with 6f [1]: ~6 fold |
| N#CCc1ccc(OCC(O)CNc2nc3ccc(Cl)cc3n2C2COC2)cc1 (stereo not shown) [Compound 6s, 2-(4-(3-((6-Chloro-1-(oxetan-3-yl)-1H-benzo[d]imidazol-2-yl)amino)-2-hydroxypropoxy)phenyl) Acetonitrile] | 0.24 ± 0.02 | 0.21 ± 0.03 | activity relative to 6f / to each other, in words [1]: comparable potencies to 6f |
| 2-(4-(3-((5,6-Dichloro-1-methyl-1H-benzo[d]imidazol-2-yl) amino)-2-hydroxypropoxy) phenyl) Acetonitrile [Compound 6c] |  |  | pqs inhibitory activity in the PA bioluminescent reporter assay, in words [1]: abolished the activity |
| CC(C)n1c(NCC(O)COc2ccc(CC#N)cc2F)nc2ccc(Cl)cc21 (stereo not shown) [Compound 6n, 2-(4-(3-((6-Chloro-1-isopropyl-1H-benzo[d]imidazol-2-yl)amino)-2-hydroxypropoxy)-3-fluorophenyl) Acetonitrile] | 0.05 ± 0.02 | 0.11 ± 0.01 | cytotoxicity for A549 cells [5]: not cytotoxic |
| Cn1c(SCC(O)COc2ccc(CC#N)cc2)nc2ccc(Cl)cc21 (stereo not shown) [Compound 11] |  |  | pqs inhibitory activity in the PA bioluminescent reporter assay, in words [1]: abolished pqs inhibitory activity |
| CN(C)CCn1c(NCC(O)COc2ccc(CC#N)cc2)nc2ccc(Cl)cc21 (stereo not shown) [Compound 6q, 2-(4-(3-((6-Chloro-1-(2-(dimethylamino)ethyl)-1H-benzo[d]imidazol-2-yl)amino)-2-hydroxypropoxy)phenyl) Acetonitrile] |  |  | pqs inhibitory activity in the PA bioluminescent reporter assay, in words [1]: obliterated the biological activity |
| COCCn1c(NCC(O)COc2ccc(CC#N)cc2)nc2ccc(Cl)cc21 (stereo not shown) [Compound 6t, 2-(4-(3-((6-Chloro-1-(2-methoxyethyl)-1H-benzo[d]imidazol-2-yl)amino)-2-hydroxypropoxy)phenyl) Acetonitrile] | 0.18 ± 0.04 | 0.2 ± 0.05 | reduction in potency compared with 6f [1]: 2 fold |
| N#CCc1ccc(OCC(O)CNc2nc3ccc(Cl)cc3o2)cc1 (stereo not shown) [Compound 7] |  |  | pqs inhibitory activity in the PA bioluminescent reporter assay, in words [1]: abolished pqs inhibitory activity |
| N#CCc1ccc(OCC(O)CNc2nc3ccc(Cl)cc3n2C2CCCC2)cc1 (stereo not shown) [Compound 6k, 2-(4-(3-((6-Chloro-1-cyclopentyl-1H-benzo[d]imidazol-2-yl)amino)-2-hydroxypropoxy)phenyl) Acetonitrile] | 0.44 ± 0.1 | 0.47 ± 0.1 | reduction in potency compared with 6f [1]: ~6 fold |
| 2-(4-(3-((5-Chloro-1-methyl-1H-benzo[d]imidazol-2-yl)amino)-2-hydroxypropoxy)phenyl) Acetonitrile [Compound 6b] |  |  | pqs inhibitory activity in the PA bioluminescent reporter assay, in words [1]: abolished the activity |
